# From patent publication US11999739B2, “Antimicrobials methods of making and using the same” (BIOVERSYS AG, priority 2016, dated 2024)
# Columns and labels:
# [1] = tested on: Staphylococcus aureus (S. aureus) 11540 strain; experiment: Standard microdilution MIC assay, S. aureus; format: cell-based
# How it was run: (§1)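 Broth microdilution per CLSI M7-A8 guidelines, with reference-strain quality control run in the same design; MIC determined per strain. Activity scored +/− against a 16 micrograms/mL cutoff.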
# [2] = tested on: Escherichia coli strain ATCC25922; experiment: Standard microdilution MIC assay, E. coli; format: cell-based
# How it was run: as §1
SMILES,MIC [1],MIC [2]
C=CC(CCNC(=N)CC(F)(F)F)NCc1ccc(-n2cc3cc(-c4cc(CCC[C@H](C)N)cc(Cl)c4F)[nH]c3nc2=O)cc1 (stereo partly drawn) [Compound 16],≤ 16 µg/mL,≤ 16 µg/mL
N=C(CF)NCC[C@@H]1CCC[C@@H](c2ccc(-n3cc4cc(-c5cc(CCC[C@@H](N)C(F)(F)F)cc(Cl)c5F)[nH]c4nc3=O)cc2)N1 [Compound 64],≤ 16 µg/mL,≤ 16 µg/mL
CCCC(=N)NCC[C@@H]1CCC[C@@H](c2ccc(-n3cc4cc(-c5cc(CCC[C@H](C)N)cc(Cl)c5F)[nH]c4nc3=O)cc2SC)N1 [Compound 353],≤ 16 µg/mL,≤ 16 µg/mL
CSc1cc(-n2cc3cc(-c4cc(CCC[C@@H](N)C5CC5)cc(OC(F)(F)F)c4F)[nH]c3nc2=O)cc(F)c1[C@@H]1CCC[C@@H](CCNC(C)=N)N1 [Compound 242],≤ 16 µg/mL,≤ 16 µg/mL
CSc1cc(-n2cc3cc(-c4cc(CCC[C@H](C)N)cc(Cl)c4F)[nH]c3nc2=O)ccc1[C@@H]1CCC[C@@H](CCNC(C)=N)N1CCCF [Compound 331],≤ 16 µg/mL,≤ 16 µg/mL
CSc1cc(-n2cc3cc(-c4cc(CCC(F)(F)CN)cc(Cl)c4F)[nH]c3nc2=O)ccc1[C@@H]1CCC[C@@H](CCNC(C)=N)N1 [Compound 129],≤ 16 µg/mL,≤ 16 µg/mL
C=C[C@@H](N)CCCc1cc(Cl)c(F)c(-c2cc3cn(-c4ccc([C@H](CO)NCCCNC(C)=N)cc4)c(=O)nc3[nH]2)c1 [Compound 158],≤ 16 µg/mL,≤ 16 µg/mL
COc1cc(-n2cc3cc(-c4cc(CCC[C@@H](N)CO)cc(C(F)(F)F)c4F)[nH]c3nc2=O)cc(F)c1[C@@H]1CCC[C@@H](CCNC(C)=N)N1 [Compound 323],≤ 16 µg/mL,≤ 16 µg/mL
C=C[C@H](N)CCCc1cc(Cl)c(F)c(-c2cc3cn(-c4ccc([C@@H]5CCC[C@@H](CCNC(C)=N)N5)c(OC)c4)c(=O)nc3[nH]2)c1 [Compound 244],≤ 16 µg/mL,≤ 16 µg/mL
C=C[C@@H](N)CCCc1cc(Cl)c(F)c(-c2cc3cn(-c4ccc(CNCCCNC(C)=N)c(F)c4)c(=O)nc3[nH]2)c1 [Compound 70],≤ 16 µg/mL,≤ 16 µg/mL
CC(=N)NCC[C@@H]1COC[C@@H](c2ccc(-n3cc4cc(-c5cc(CCC(C)(C)CN)cc(Cl)c5F)[nH]c4nc3=O)cc2)N1 [Compound 71],≤ 16 µg/mL,≤ 16 µg/mL
C=C[C@@H](CCNC(C)=N)N[C@@H](C)c1ccc(-n2cc3cc(-c4cc(CCC[C@H](C)N)cc(Cl)c4F)[nH]c3nc2=O)cc1F [Compound 183],≤ 16 µg/mL,≤ 16 µg/mL
C=C[C@@H](CCNC(=N)CF)NCc1ccc(-n2cc3cc(-c4cc(CCC[C@@H](N)CO)cc(Cl)c4F)[nH]c3nc2=O)cc1 [Compound 2],≤ 16 µg/mL,≤ 16 µg/mL
CC(=N)NCC[C@@H]1CCC[C@@H](c2ccc(-n3cc4cc(-c5cc(CCC[C@@H](N)C6CC6)cc(C(F)(F)F)c5)[nH]c4nc3=O)cc2F)N1 [Compound 211],≤ 16 µg/mL,≤ 16 µg/mL
COc1cc(-n2cc3cc(-c4cc(CCC[C@@H](N)C5CC5)cc(OC(F)(F)F)c4F)[nH]c3nc2=O)ccc1[C@@H]1CCC[C@@H](CCNC(C)=N)N1 [Compound 234],≤ 16 µg/mL,≤ 16 µg/mL
C=C[C@@H](CCNC(C)=N)NCc1ccc(-n2cc3cc(-c4cc(CCC[C@@H](N)CC(N)=O)cc(Cl)c4F)[nH]c3nc2=O)cc1 [Compound 157],≤ 16 µg/mL,≤ 16 µg/mL
COC[C@H](N)CCCc1cc(-c2cc3cn(-c4ccc([C@@H]5CCC[C@@H](CCNC(C)=N)N5)c(OC)c4)c(=O)nc3[nH]2)c(F)c(C(F)(F)F)c1 [Compound 194],≤ 16 µg/mL,≤ 16 µg/mL
COC[C@H](N)CCCc1cc(OC(F)(F)F)c(F)c(-c2cc3cn(-c4ccc([C@@H]5CCC[C@@H](CCNC(C)=N)N5)c(OC(F)(F)F)c4)c(=O)nc3[nH]2)c1 [Compound 233],≤ 16 µg/mL,≤ 16 µg/mL
CC(=N)NCC[C@@H]1CCC[C@@H](c2ccc(-n3cc4cc(-c5cc(Cl)cc(CCC[C@H](C)N)c5)[nH]c4nc3=O)cc2)N1 [Compound 370],≤ 16 µg/mL,≤ 16 µg/mL
CC(=N)NCC[C@@H]1CCC[C@@H](c2ccc(-n3cc4cc(-c5cc(CCC[C@@H](N)C6CC6)cc(C(F)(F)F)c5F)[nH]c4nc3=O)cc2OC(F)(F)F)N1 [Compound 229],≤ 16 µg/mL,≤ 16 µg/mL
COc1cc(-n2cc3cc(-c4cc(CCC[C@@H](N)C5CC5)cc(Cl)c4F)[nH]c3nc2=O)cc(F)c1[C@@H]1CCC[C@@H](CCNC(C)=N)N1 [Compound 321],≤ 16 µg/mL,≤ 16 µg/mL
CC(=N)NCC[C@@H]1CCC[C@@H](c2c(F)cc(-n3cc4cc(-c5cc(CCC[C@H](C)N)cc(Cl)c5F)[nH]c4nc3=O)cc2N2CCOCC2)N1 [Compound 282],≤ 16 µg/mL,≤ 16 µg/mL
COC[C@H](N)CCCc1cc(OC(F)(F)F)c(F)c(-c2cc3cn(-c4ccc([C@@H]5CCC[C@@H](CCNC(C)=N)N5)cc4)c(=O)nc3[nH]2)c1 [Compound 195],≤ 16 µg/mL,≤ 16 µg/mL
CC(=N)NCC[C@@H]1CCC[C@@H](c2ccc(-n3cc4cc(-c5cc(CCC[C@@H](N)C6CC6)cc(C(F)(F)F)c5)[nH]c4nc3=O)cc2)N1 [Compound 206],≤ 16 µg/mL,≤ 16 µg/mL

SMILES,MIC [1],MIC [2]
CC(C)(CN)CCc1cc(Cl)c(F)c(-c2cc3cn(-c4ccc([C@@H]5COC[C@@H](CCNC(=N)CF)N5)cc4)c(=O)nc3[nH]2)c1 [Compound 72],≤ 16 µg/mL,≤ 16 µg/mL
CC(=N)NCC[C@@H]1CCC[C@@H](c2ccc(-n3cc4cc(-c5cc(CCC[C@@H](N)CF)cc(Cl)c5F)[nH]c4nc3=O)cc2F)N1 [Compound 170],≤ 16 µg/mL,≤ 16 µg/mL
COC[C@H](N)CCCc1cc(OC(F)(F)F)c(F)c(-c2cc3cn(-c4ccc(CN[C@H](CCNC(C)=N)C5CC5)cc4)c(=O)nc3[nH]2)c1 [Compound 223],≤ 16 µg/mL,≤ 16 µg/mL
CC(=N)NCC[C@H](CO)NCc1ccc(-n2cc3cc(-c4cc(CCC[C@H](C)N)cc(Cl)c4F)[nH]c3nc2=O)cc1 [Compound 18],≤ 16 µg/mL,≤ 16 µg/mL
CC(=N)NCCCNCc1ccc(-n2cc3cc(-c4cc(CCCC(C)(C)N)cc(Cl)c4F)[nH]c3nc2=O)cc1F [Compound 65],≤ 16 µg/mL,≤ 16 µg/mL
C[C@H](NCCCNC(=N)CF)c1ccc(-n2cc3cc(-c4cc(CCC[C@@H](N)CO)cc(Cl)c4F)[nH]c3nc2=O)cc1F [Compound 125],≤ 16 µg/mL,≤ 16 µg/mL
CC(=N)NCC[C@@H]1CCC[C@@H](c2ccc(-n3cc4cc(-c5cc(CCC[C@@H](N)CF)cc(C(F)(F)F)c5)[nH]c4nc3=O)cc2OC(F)(F)F)N1 [Compound 215],≤ 16 µg/mL,≤ 16 µg/mL
C=C[C@@H](N)CCCc1cc(Cl)c(F)c(-c2cc3cn(-c4ccc([C@H](C)N[C@@H](C=C)CCNC(C)=N)cc4)c(=O)nc3[nH]2)c1 [Compound 149],≤ 16 µg/mL,≤ 16 µg/mL
CSC[C@H](N)CCCc1cc(Cl)c(F)c(-c2cc3cn(-c4ccc([C@@H]5CCC[C@@H](CCNC(C)=N)N5)cc4)c(=O)nc3[nH]2)c1 [Compound 276],≤ 16 µg/mL,≤ 16 µg/mL
CC(=N)NCC[C@@H]1CCC[C@@H](c2ccc(-n3cc4cc(-c5cc(CCC(C)(C)CN)cc(Cl)c5F)[nH]c4nc3=O)cc2)N1 [Compound 24],≤ 16 µg/mL,≤ 16 µg/mL
C=C[C@H](N)CCCc1cc(Cl)c(F)c(-c2cc3cn(-c4ccc([C@@H]5COC[C@@H](CCNC(=N)CF)N5)cc4)c(=O)nc3[nH]2)c1 [Compound 81],≤ 16 µg/mL,≤ 16 µg/mL
CC(=N)NCCCN[C@@H](C)c1ccc(-n2cc3cc(-c4cc(CCC[C@@H](N)C5CC5)cc(Cl)c4F)[nH]c3nc2=O)cc1F [Compound 99],≤ 16 µg/mL,≤ 16 µg/mL
CC(=N)N[C@@H](C)C[C@@H]1CCC[C@@H](c2ccc(-n3cc4cc(-c5cc(CCC[C@@H](N)C6CC6)cc(Cl)c5F)[nH]c4nc3=O)cc2)N1 [Compound 256],≤ 16 µg/mL,≤ 16 µg/mL
COC[C@H](N)CCCc1cc(OC(F)(F)F)c(F)c(-c2cc3cn(-c4ccc([C@@H]5CCC[C@@H](CCNC(C)=N)N5)c(C)c4)c(=O)nc3[nH]2)c1 [Compound 238],≤ 16 µg/mL,≤ 16 µg/mL
COc1cc(-n2cc3cc(-c4cc(CCC[C@H](C)N)cc(Cl)c4F)[nH]c3nc2=O)cc(F)c1[C@@H]1CCC[C@@H](CCNC(C)=N)N1 [Compound 319],≤ 16 µg/mL,≤ 16 µg/mL
COC[C@H](N)CCCc1cc(-c2cc3cn(-c4ccc(CN[C@H](CCNC(C)=N)C5CC5)cc4)c(=O)nc3[nH]2)c(F)c(C(F)(F)F)c1 [Compound 224],≤ 16 µg/mL,≤ 16 µg/mL
CSc1cc(-n2cc3cc(-c4cc(CCC[C@H](C)N)cc(C(F)(F)F)c4)[nH]c3nc2=O)ccc1[C@@H]1CCC[C@@H](CCNC(C)=N)N1CCCF [Compound 292],≤ 16 µg/mL,≤ 16 µg/mL
CC(=N)NCCCN[C@@H](CO)c1ccc(-n2cc3cc(-c4cc(CCC[C@@H](N)CF)cc(Cl)c4F)[nH]c3nc2=O)cc1 [Compound 136],≤ 16 µg/mL,≤ 16 µg/mL
C=C[C@@H](CCNC(C)=N)N[C@@H](C)c1ccc(-n2cc3cc(-c4cc(CCC[C@@H](N)CO)cc(Cl)c4F)[nH]c3nc2=O)cc1F [Compound 168],≤ 16 µg/mL,≤ 16 µg/mL
CC(=N)NCCCN[C@@H](CO)c1ccc(-n2cc3cc(-c4cc(CCC[C@@H](N)CO)cc(Cl)c4F)[nH]c3nc2=O)cc1 [Compound 133],≤ 16 µg/mL,≤ 16 µg/mL
CSc1cc(-n2c(C)c3cc(-c4cc(CCC[C@@H](N)C5CC5)cc(Cl)c4F)[nH]c3nc2=O)ccc1[C@@H]1CCC[C@@H](CCNC(C)=N)N1 [Compound 335],≤ 16 µg/mL,≤ 16 µg/mL
COC[C@H](N)CCCc1cc(-c2cc3cn(-c4ccc([C@@H]5CCC[C@@H](CCNC(C)=N)N5)c(OC(F)(F)F)c4)c(=O)nc3[nH]2)cc(C(F)(F)F)c1 [Compound 214],≤ 16 µg/mL,≤ 16 µg/mL
C=C[C@@H](CCNC(C)=N)N[C@@H](C)c1ccc(-n2cc3cc(-c4cc(CCC[C@@H](N)CF)cc(Cl)c4F)[nH]c3nc2=O)cc1F [Compound 186],≤ 16 µg/mL,≤ 16 µg/mL
CC(=N)NCC[C@H](CO)NCc1ccc(-n2cc3cc(-c4cc(CCCC5(N)CC5)cc(Cl)c4F)[nH]c3nc2=O)cc1 [Compound 153],≤ 16 µg/mL,≤ 16 µg/mL
